Measurements reported in patent US12024531B2, “Immunoproteasome inhibitors” (Principia Biopharma Inc., priority 2017, dated 2024).

Columns and labels:
Type in all cases: biochemical
[1] = biological target: immunoproteasome LMP2 subunit (Homo sapiens, UniProt P28065); assay: Caliper-based proteasome enzymatic activity assay, LMP2; conditions: human recombinant immunoproteasome 0.3 nM, FAM peptide substrate 1 μM, rt 2 h
[2] = biological target: immunoproteasome LMP7/B5i subunit (Homo sapiens, UniProt P28062); assay: Caliper-based proteasome enzymatic activity assay, LMP7; conditions: human recombinant immunoproteasome 0.3 nM, FAM peptide substrate 1 μM, rt 3 h
[3] = biological target: constitutive proteasome β5c subunit (Homo sapiens, UniProt P28074); assay: Caliper-based proteasome enzymatic activity assay, β5c; conditions: human recombinant constitutive proteasome 0.3 nM, FAM peptide substrate 1 μM, rt 3 h

| SMILES | IC50 [1] | IC50 [2] | IC50 [3] |
| --- | --- | --- | --- |
| COCC(C)(C)NC(=O)C(C#N)=Cc1cccc(OCCC(=O)N[C@@H](Cc2ccccc2)B(O)O)c1 [Example 47, (R)-(1-(3-(3-(2-cyano-3-((1-methoxy-2-methylpropan-2-yl)amino)-3-oxoprop-1-en-1-yl)phenoxy)propanamido)-2-phenylethyl)boronic Acid] | 0.438 µM | 0.0053 µM | 0.0722 µM |
| C[C@H]1COC[C@H](C)N1C(=O)C(C#N)=Cc1cccc(CCOC(=O)N[C@@H](Cc2ccccc2)B(O)O)c1 [Example 68, ((R)-1-(((3-(2-cyano-3-((3S,5S)-3,5-dimethylmorpholino)-3-oxoprop-1-en-1-yl)phenethoxy)carbonyl)amino)-2-phenylethyl)boronic Acid] | > 5 µM | 0.0007 µM | > 5 µM |
| N#CC(=Cc1ccc2c(c1)CN(CC(=O)N[C@@H](Cc1ccccc1)B(O)O)CC2)c1ccccn1 [Example 66, (R)-(1-(2-(7-(2-cyano-2-(pyridin-2-yl)vinyl)-3,4-dihydroisoquinolin-2(1H)-yl)acetamido)-2-phenylethyl)boronic Acid] | 0.0744 µM | 0.0046 µM | 0.0333 µM |
| CC(C)(C)NC(=O)C(C#N)=Cc1cccc(CC[C@H](NC(=O)c2cc(Cl)ccc2Cl)C(=O)N[C@@H](Cc2ccccc2)B(O)O)c1 [Example 4, (R)-1-((S)-4-(3-(3-(tert-butylamino)-2-cyano-3-oxoprop-1-enyl)phenyl)-2-(2,5-dichlorobenzamido)butanamido)-2-phenylethylboronic Acid] | 0.016 µM | 0.001 µM | 0.007 µM |
| CC1(C)COCCN1C(=O)C(C#N)=Cc1cccc(CCOC(=O)N[C@@H](Cc2coc3ccccc23)B(O)O)c1 [Example 93, (R)-(2-(benzofuran-3-yl)-1-(((3-(2-cyano-3-(3,3-dimethylmorpholino)-3-oxoprop-1-en-1-yl)phenethoxy)carbonyl)amino)ethyl)boronic Acid] | > 5 µM | 0.0011 µM | 0.045 µM |
| N#CC(=Cc1cccc(CCOC(=O)N[C@@H](Cc2ccccc2)B(O)O)c1)c1cnccn1 [Example 63, (R)-(1-(((3-(2-cyano-2-(pyrazin-2-yl)vinyl)phenethoxy)carbonyl)amino)-2-phenylethyl)boronic Acid] | 1.51 µM | 0.0014 µM | 0.556 µM |
| CN(C)C(=O)C(C#N)=Cc1cccc(CCCC(=O)N[C@@H](Cc2ccccc2)B(O)O)c1 [Example 24, (R)-(1-(4-(3-(2-cyano-3-(dimethylamino)-3-oxoprop-1-en-1-yl)phenyl)butanamido)-2-phenylethyl)boronic Acid] | 1.89 µM | 0.012 µM | 1.93 µM |
| Cc1ccc(C[C@H](NC(=O)OCCc2cccc(C=C(C#N)c3ccc(C(F)(F)F)cn3)c2)B(O)O)cc1 [Example 81, (R)-(1-(((3-(2-cyano-2-(5-(trifluoromethyl)pyridin-2-yl)vinyl)phenethoxy)carbonyl)amino)-2-(p-tolyl)ethyl)boronic Acid] | 2.83 µM | 0.0052 µM | 0.438 µM |
| Cc1ccc(C[C@H](NC(=O)CCOc2cccc(C=C(C#N)c3ccccn3)c2)B(O)O)c(C)c1 [Example 45, (R)-1-(3-(3-(2-cyano-2-(pyridin-2-yl)vinyl)phenoxy)propanamido)-2-(2,4-dimethylphenyl)ethylboronic Acid] | 1.25 µM | 0.0043 µM | 0.0927 µM |
| C[C@@H]1COC[C@@H](C)N1C(=O)C(C#N)=Cc1cccc(CCOC(=O)N[C@@H](Cc2ccccc2)B(O)O)c1 [Example 65, ((R)-1-(((3-(2-cyano-3-((3R,5R)-3,5-dimethylmorpholino)-3-oxoprop-1-en-1-yl)phenethoxy)carbonyl)amino)-2-phenylethyl)boronic Acid] | 3.56 µM | 0.0006 µM | 1.19 µM |
| N#CC(=Cc1cccc(CCOC(=O)N[C@@H](Cc2ccccc2)B(O)O)c1)C(=O)N(C1CCOCC1)C1CCOCC1 [Example 72, (R)-(1-(((3-(3-(bis(tetrahydro-2H-pyran-4-yl)amino)-2-cyano-3-oxoprop-1-en-1-yl)phenethoxy)carbonyl)amino)-2-phenylethyl)boronic Acid] | > 5 µM | 0.0014 µM | > 5 µM |
| CCNC(=O)C(C#N)=Cc1cccc(OCCC(=O)N[C@@H](Cc2ccccc2)B(O)O)c1 [Example 31, (R)-(1-(3-(3-(2-cyano-3-(ethylamino)-3-oxoprop-1-en-1-yl)phenoxy)propanamido)-2-phenylethyl)boronic Acid] | 0.27 µM | 0.004 µM | 0.12 µM |
| N#CC(=Cc1ccc(F)c(OCCC(=O)N[C@@H](Cc2ccccc2)B(O)O)c1)c1ccccn1 [Example 28, (R)-(1-(3-(5-(2-cyano-2-(pyridin-2-yl)vinyl)-2-fluorophenoxy)propanamido)-2-phenylethyl)boronic Acid] | 0.049 µM | 0.002 µM | 0.034 µM |

Results, then the compound that gave them:

| IC50 [1] | IC50 [2] | IC50 [3] | SMILES |
| --- | --- | --- | --- |
| > 5 µM | 0.0009 µM | 0.779 µM | CCN(CC)C(=O)C(C#N)=Cc1cccc(CCOC(=O)N[C@@H](Cc2ccc(Cl)cc2)B(O)O)c1 [Example 86, (R)-(2-(4-chlorophenyl)-1-(((3-(2-cyano-3-(diethylamino)-3-oxoprop-1-en-1-yl)phenethoxy)carbonyl)amino)ethyl)boronic Acid] |
| 0.14 µM | 0.003 µM | 0.095 µM | CN(C)C(=O)C(C#N)=Cc1cccc(OCCC(=O)N[C@@H](Cc2ccccc2)B(O)O)c1 [Example 5, (R)-1-(3-(3-(2-cyano-3-(dimethylamino)-3-oxoprop-1-enyl)phenoxy)propanamido)-2-phenylethylboronic Acid] |
| > 5 µM | 0.0022 µM | 0.015 µM | N#CC(=Cc1cccc(CCNC(=O)N[C@@H](Cc2coc3ccccc23)B(O)O)c1)c1ncccn1 [Example 94, (R)-(2-(benzofuran-3-yl)-1-(3-(3-(2-cyano-2-(pyrimidin-2-yl)vinyl)phenethyl)ureido)ethyl)boronic Acid] |
| > 5 µM | 0.0032 µM | 3.41 µM | N#CC(=Cc1cc(CO)cc(CCOC(=O)N[C@@H](Cc2ccccc2)B(O)O)c1)c1ccccn1 [Example 76, (R)-(1-(((3-(2-cyano-2-(pyridin-2-yl)vinyl)-5-(hydroxymethyl)phenethoxy)carbonyl)amino)-2-phenylethyl)boronic Acid] |
| 0.223 µM | 0.0168 µM | 0.495 µM | CN(C)C(=O)C(C#N)=Cc1cccc(OCCC(=O)N[C@@H](Cc2ccccc2)B(O)O)c1F [Example 37, (R)-(1-(3-(3-(2-cyano-3-(dimethylamino)-3-oxoprop-1-en-1-yl)-2-fluorophenoxy)propanamido)-2-phenylethyl)boronic Acid] |
| 0.5 µM | 0.005 µM | 0.06 µM | CCN(CC)C(=O)C(C#N)=Cc1cccc(OCCC(=O)N[C@@H](Cc2ccccc2)B(O)O)c1 [Example 7, (R)-1-(3-(3-(2-cyano-3-(diethylamino)-3-oxoprop-1-enyl)phenoxy)propanamido)-2-phenylethylboronic Acid] |
| > 5 µM | 0.0005 µM | 0.869 µM | Cc1ccc(C[C@H](NC(=O)OCCc2cccc(C=C(C#N)C(=O)N3C4CCC3COC4)c2)B(O)O)cc1 [Example 89, ((1R)-1-(((3-(3-(3-oxa-8-azabicyclo[3.2.1]octan-8-yl)-2-cyano-3-oxoprop-1-en-1-yl)phenethoxy)carbonyl)amino)-2-(p-tolyl)ethyl)boronic Acid] |
| 3.57 µM | 0.033 µM | 3.68 µM | CC(C)(C)NC(=O)C(C#N)=Cc1cccc(COC(=O)N[C@@H](Cc2ccccc2)B(O)O)c1 [Example 16, (R)-(1-((((3-(3-(tert-butylamino)-2-cyano-3-oxoprop-1-en-1-yl)benzyl)oxy)carbonyl)amino)-2-phenylethyl)boronic Acid] |
| 0.15 µM | 0.004 µM | 0.12 µM | N#CC(=Cc1cccc(OCCC(=O)N[C@@H](Cc2ccccc2)B(O)O)c1)C(=O)N1CCC1 [Example 30, (R)-(1-(3-(3-(3-(azetidin-1-yl)-2-cyano-3-oxoprop-1-en-1-yl)phenoxy)propanamido)-2-phenylethyl)boronic Acid] |
| 0.69 µM | 0.0016 µM | 0.39 µM | N#CC(=Cc1cccc(CCOC(=O)N[C@@H](Cc2ccccc2)B(O)O)c1)c1ccc(C#N)cn1 [Example 78, (R)-(1-(((3-(2-cyano-2-(5-cyanopyridin-2-yl)vinyl)phenethoxy)carbonyl)amino)-2-phenylethyl)boronic Acid] |
| 0.415 µM | 0.0051 µM | 0.0904 µM | COC(C)(C)CNC(=O)C(C#N)=Cc1cccc(OCCC(=O)N[C@@H](Cc2ccccc2)B(O)O)c1 [Example 48, (R)-(1-(3-(3-(2-cyano-3-((2-methoxy-2-methylpropyl)amino)-3-oxoprop-1-en-1-yl)phenoxy)propanamido)-2-phenylethyl)boronic Acid] |
| 0.37 µM | 0.0046 µM | 0.141 µM | COCCNC(=O)C(C#N)=Cc1cccc(OCCC(=O)N[C@@H](Cc2ccccc2)B(O)O)c1 [Example 46, (R)-(1-(3-(3-(2-cyano-3-((2-methoxyethyl)amino)-3-oxoprop-1-en-1-yl)phenoxy)propanamido)-2-phenylethyl)boronic Acid] |
| 0.1 µM | 0.003 µM | 0.027 µM | CN(C(=O)C(C#N)=Cc1cccc(OCCC(=O)N[C@@H](Cc2ccccc2)B(O)O)c1)c1ccccc1 [Example 22, (R)-(1-(3-(3-(2-cyano-3-(methyl(phenyl)amino)-3-oxoprop-1-en-1-yl)phenoxy)propanamido)-2-phenylethyl)boronic Acid] |
| 1.6 µM | 0.0009 µM | 0.998 µM | CC1(C)COCCN1C(=O)C(C#N)=Cc1cccc(CCOC(=O)N[C@@H](Cc2ccccc2)B(O)O)c1 [Example 79, (R)-(1-(((3-(2-cyano-3-(3,3-dimethylmorpholino)-3-oxoprop-1-en-1-yl)phenethoxy)carbonyl)amino)-2-phenylethyl)boronic Acid] |
